Converted amounts (≈) assume the structure as drawn.
Columns and labels:
Assay type in all cases: functional
Klebsiella pneumoniae [1] = test: Antimicrobial activity against Klebsiella pneumoniae containing PFGE clone A expressing beta-lactamase Oxa-48, TEM-1, SHV-12 and Oxa-9 by Etest
Klebsiella pneumoniae [2] = test: Antimicrobial activity against Klebsiella pneumoniae containing PFGE clone B expressing beta-lactamase Oxa-48, TEM-1, CTX-M-15 and Oxa-1 by Etest
Escherichia coli [3] = test: Antimicrobial activity against Escherichia coli J53 harboring beta-lactamase Oxa-48 by Etest
Klebsiella pneumoniae [4] = test: Antimicrobial activity against Klebsiella pneumoniae isolate 21 expressing beta-lactamase Oxa-48, TEM-1 and Oxa-9 by Etest
Escherichia coli [5] = test: Antimicrobial activity against Escherichia coli J53 by Etest
Klebsiella pneumoniae [6] = test: Antimicrobial activity against Klebsiella pneumoniae isolate 11 expressing beta-lactamase Oxa-48, TEM-1 and Oxa-1 by Etest
Klebsiella pneumoniae [7] = test: Antimicrobial activity against Klebsiella pneumoniae isolate 11 expressing beta-lactamase Oxa-48, TEM-1 and Oxa-1 by Etest in presence of beta-lactamase inhibitor Tazobactam
Escherichia coli [8] = test: Antimicrobial activity against Escherichia coli J53 harboring beta-lactamase TEM-1, SHV-12 and Oxa-9 by Etest
Klebsiella pneumoniae [9] = test: Antimicrobial activity against Klebsiella pneumoniae containing PFGE clone A expressing beta-lactamase Oxa-48, TEM-1, SHV-12 and Oxa-9 by Etest in presence of beta-lactamase inhibitor Tazobactam
Escherichia coli [10] = test: Antimicrobial activity against Escherichia coli J53 by Etest in presence of beta-lactamase inhibitor Tazobactam
Escherichia coli [11] = test: Antimicrobial activity against Escherichia coli J53 harboring beta-lactamase TEM-1, CTX-M-15 and Oxa-1 by Etest in presence of beta-lactamase inhibitor Tazobactam
Escherichia coli [12] = test: Antimicrobial activity against Escherichia coli J53 harboring beta-lactamase Oxa-48 by Etest in presence of beta-lactamase inhibitor Tazobactam
Klebsiella pneumoniae [13] = test: Antimicrobial activity against Klebsiella pneumoniae isolate 21 expressing beta-lactamase Oxa-48, TEM-1 and Oxa-9 by Etest in presence of beta-lactamase inhibitor Tazobactam
Escherichia coli [14] = test: Antimicrobial activity against Escherichia coli J53 harboring beta-lactamase TEM-1, CTX-M-15 and Oxa-1 by Etest
Klebsiella pneumoniae [15] = test: Antimicrobial activity against Klebsiella pneumoniae containing PFGE clone B expressing beta-lactamase Oxa-48, TEM-1, CTX-M-15 and Oxa-1 by Etest in presence of beta-lactamase inhibitor Tazobactam
Escherichia coli [16] = test: Antimicrobial activity against Escherichia coli J53 harboring beta-lactamase TEM-1, SHV-12 and Oxa-9 by Etest in presence of beta-lactamase inhibitor Tazobactam
Klebsiella pneumoniae [17] = test: Antimicrobial activity against Klebsiella pneumoniae containing PFGE clone A expressing beta-lactamase Oxa-48, TEM-1, SHV-12 and Oxa-9 by Etest in presence of beta-lactamase inhibitor clavulanic acid
Escherichia coli [18] = test: Antimicrobial activity against Escherichia coli J53 by Etest in presence of beta-lactamase inhibitor clavulanic acid
Klebsiella pneumoniae [19] = test: Antimicrobial activity against Klebsiella pneumoniae isolate 11 expressing beta-lactamase Oxa-48, TEM-1 and Oxa-1 by Etest in presence of beta-lactamase inhibitor clavulanic acid
Escherichia coli [20] = test: Antimicrobial activity against Escherichia coli J53 harboring beta-lactamase TEM-1, SHV-12 and Oxa-9 by Etest in presence of beta-lactamase inhibitor clavulanic acid
Klebsiella pneumoniae [21] = test: Antimicrobial activity against Klebsiella pneumoniae containing PFGE clone B expressing beta-lactamase Oxa-48, TEM-1, CTX-M-15 and Oxa-1 by Etest in presence of beta-lactamase inhibitor clavulanic acid
Klebsiella pneumoniae [22] = test: Antimicrobial activity against Klebsiella pneumoniae isolate 21 expressing beta-lactamase Oxa-48, TEM-1 and Oxa-9 by Etest in presence of beta-lactamase inhibitor clavulanic acid
Escherichia coli [23] = test: Antimicrobial activity against Escherichia coli J53 harboring beta-lactamase TEM-1, CTX-M-15 and Oxa-1 by Etest in presence of beta-lactamase inhibitor clavulanic acid
Escherichia coli [24] = test: Antimicrobial activity against Escherichia coli J53 harboring beta-lactamase Oxa-48 by Etest in presence of beta-lactamase inhibitor clavulanic acid

| Compound | MIC (Klebsiella pneumoniae [1]) [µg/mL] | MIC (Klebsiella pneumoniae [2]) [µg/mL] | MIC (Escherichia coli [3]) [µg/mL] | MIC (Klebsiella pneumoniae [4]) [µg/mL] | MIC (Escherichia coli [5]) [µg/mL] | MIC (Klebsiella pneumoniae [6]) [µg/mL] | MIC (Escherichia coli [8]) [µg/mL] | MIC (Escherichia coli [14]) [µg/mL] | also measured |
| --- | --- | --- | --- | --- | --- | --- | --- | --- | --- |
| CCn1cc(C(=O)O)c(=O)c2ccc(C)nc21 [NALIDIXIC ACID] | > 64 | > 64 | – | – | – | – | – | – | – |
| NC[C@H]1O[C@H](O[C@H]2[C@H](O)[C@@H](O[C@H]3O[C@H](CO)[C@@H](O)[C@H](N)[C@H]3O)[C@H](N)C[C@@H]2N)[C@H](O)[C@@H](O)[C@@H]1O [KANAMYCIN] | > 256 | 128 (≈ 264 µM) | – | – | – | – | – | – | – |
| CN(C)[C@@H]1C(O)=C(C(N)=O)C(=O)[C@@]2(O)C(O)=C3C(=O)c4c(O)cccc4[C@@](C)(O)[C@H]3C[C@@H]12 [TETRACYCLINE] | > 256 | > 256 | – | – | – | – | – | – | – |
| CCN[C@@H]1C[C@H](N)[C@@H](O[C@H]2OC(CN)=CC[C@H]2N)[C@H](O)[C@H]1O[C@H]1OC[C@](C)(O)[C@H](NC)[C@H]1O [NETILMICIN] | > 128 | 3 (≈ 6.31 µM) | – | – | – | – | – | – | – |
| C[C@@H](O)[C@H]1C(=O)N2C(C(=O)O)=C(S[C@@H]3CN[C@H](C(=O)Nc4cccc(C(=O)O)c4)C3)[C@H](C)[C@H]12 | > 32 | > 32 | 0.25 (≈ 0.526 µM) | > 32 | < 1 | > 32 | – | – | – |
| GENTAMICIN | > 64 | 1 | – | – | – | – | – | – | – |
| CCN1CCN(C(=O)N[C@@H](C(=O)N[C@@H]2C(=O)N3[C@@H]2SC(C)(C)[C@@H]3C(=O)O)c2ccccc2)C(=O)C1=O [PIPERACILLIN] | > 512 | > 512 | > 512 | > 512 | 4 (≈ 7.73 µM) | > 512 | > 512 | > 512 | MIC (Klebsiella pneumoniae [7]): > 512 µg/mL; MIC (Klebsiella pneumoniae [9]): > 512 µg/mL; MIC (Escherichia coli [10]): 4 µg/mL; MIC (Escherichia coli [11]): > 4 µg/mL; MIC (Escherichia coli [12]): 64 µg/mL; MIC (Klebsiella pneumoniae [13]): > 512 µg/mL; MIC (Klebsiella pneumoniae [15]): > 512 µg/mL; MIC (Escherichia coli [16]): > 4 µg/mL |
| CO[C@@]1(NC(=O)C(C(=O)O)c2ccc(O)cc2)C(=O)N2C(C(=O)O)=C(CSc3nnnn3C)CO[C@@H]21 (some centres not stated) [MOXALACTAM] | > 16 | > 16 | 2 (≈ 3.84 µM) | – | 1 (≈ 1.92 µM) | – | < 0.5 | < 0.5 | – |
| CO[C@@]1(NC(=O)Cc2cccs2)C(=O)N2C(C(=O)O)=C(COC(N)=O)CS[C@@H]21 [CEFOXITIN] | 16 (≈ 37.4 µM) | > 32 | 4 (≈ 9.36 µM) | > 32 | 4 (≈ 9.36 µM) | 16 (≈ 37.4 µM) | 2 (≈ 4.68 µM) | 2 (≈ 4.68 µM) | – |
| CC1(C)S[C@@H]2[C@H](NC(=O)[C@H](C(=O)O)c3ccsc3)C(=O)N2[C@H]1C(=O)O [TICARCILLIN] | > 512 | > 512 | > 512 | > 512 | 4 (≈ 10.4 µM) | > 512 | > 512 | > 514 | MIC (Klebsiella pneumoniae [17]): > 512 µg/mL; MIC (Escherichia coli [18]): 4 µg/mL; MIC (Klebsiella pneumoniae [19]): > 512 µg/mL; MIC (Escherichia coli [20]): > 512 µg/mL; MIC (Klebsiella pneumoniae [21]): > 512 µg/mL; MIC (Klebsiella pneumoniae [22]): > 512 µg/mL; MIC (Escherichia coli [23]): > 512 µg/mL; MIC (Escherichia coli [24]): > 512 µg/mL |
| NCC[C@H](O)C(=O)N[C@@H]1C[C@H](N)[C@@H](O[C@H]2O[C@H](CN)[C@@H](O)[C@H](O)[C@H]2O)[C@H](O)[C@H]1O[C@H]1O[C@H](CO)[C@@H](O)[C@H](N)[C@H]1O [AMIKACIN] | 16 (≈ 27.3 µM) | 2 (≈ 3.42 µM) | – | – | – | – | – | – | – |
| CC1(C)S[C@@H]2[C@H](NC(=O)[C@H](N)c3ccc(O)cc3)C(=O)N2[C@H]1C(=O)O [AMOXICILLIN] | > 512 | > 512 | > 512 | > 512 | 1 (≈ 2.74 µM) | > 512 | > 512 | > 512 | MIC (Klebsiella pneumoniae [17]): > 512 µg/mL; MIC (Escherichia coli [18]): 1 µg/mL; MIC (Klebsiella pneumoniae [19]): > 512 µg/mL; MIC (Escherichia coli [20]): > 512 µg/mL; MIC (Klebsiella pneumoniae [21]): > 512 µg/mL; MIC (Klebsiella pneumoniae [22]): > 512 µg/mL; MIC (Escherichia coli [23]): > 513 µg/mL; MIC (Escherichia coli [24]): > 512 µg/mL |
| CO/N=C(\C(=O)N[C@@H]1C(=O)N2C(C(=O)[O-])=C(C[N+]3(C)CCCC3)CS[C@H]12)c1csc(N)n1 | – | – | < 0.5 | 4 (≈ 8.32 µM) | 0.125 (≈ 0.26 µM) | 4 (≈ 8.32 µM) | 0.5 (≈ 1.04 µM) | 4 (≈ 8.32 µM) | – |
| CC1COc2c(N3CCN(C)CC3)c(F)cc3c(=O)c(C(=O)O)cn1c23 (configuration not stated) [OFLOXACIN] | 2 (≈ 5.53 µM) | > 64 | – | – | – | – | – | – | – |
| COc1cc(Cc2cnc(N)nc2N)cc(OC)c1OC [TRIMETHOPRIM] | > 32 | > 32 | – | – | – | – | – | – | – |
| C[C@@H](O)[C@H]1C(=O)N2C(C(=O)O)=C(S[C@@H]3CN[C@H](C(=O)N(C)C)C3)[C@H](C)[C@H]12 [MEROPENEM] | > 32 | 6 (≈ 15.6 µM) | 0.12 (≈ 0.313 µM) | – | < 1 | – | – | – | – |
| CCn1cc(C(=O)O)c(=O)c2cc(F)c(N3CCNCC3)cc21 [NORFLOXACIN] | 8 (≈ 25.1 µM) | > 256 | – | – | – | – | – | – | – |
| NC[C@H]1O[C@H](O[C@H]2[C@H](O)[C@@H](O[C@H]3O[C@H](CO)[C@@H](O)[C@H](N)[C@H]3O)[C@H](N)C[C@@H]2N)[C@H](N)C[C@@H]1O [TOBRAMYCIN] | > 64 | > 64 | – | – | – | – | – | – | – |
| C[C@@H](O)[C@H]1C(=O)N2C(C(=O)O)=C(SCCNC=N)C[C@H]12 [IMIPENEM ANHYDROUS] | 4 (≈ 13.4 µM) | 4 (≈ 13.4 µM) | 0.5 (≈ 1.67 µM) | 8 (≈ 26.7 µM) | – | 8 (≈ 26.7 µM) | < 1 | < 1 | – |
| CC(C)(O/N=C(\C(=O)N[C@@H]1C(=O)N2C(C(=O)[O-])=C(C[n+]3ccccc3)CS[C@H]12)c1csc(N)n1)C(=O)O [CEFTAZIDIME] | > 512 | > 512 | 1 (≈ 1.83 µM) | 2 (≈ 3.66 µM) | 1 (≈ 1.83 µM) | 2 (≈ 3.66 µM) | 64 (≈ 117 µM) | 128 (≈ 234 µM) | – |
| CO/N=C(\C(=O)N[C@@H]1C(=O)N2C(C(=O)O)=C(COC(C)=O)CS[C@H]12)c1csc(N)n1 [CEFOTAXIME] | > 512 | > 512 | 0.5 (≈ 1.1 µM) | 4 (≈ 8.78 µM) | 0.5 (≈ 1.1 µM) | 4 (≈ 8.78 µM) | 4 (≈ 8.78 µM) | > 32 | – |
| C[C@H]1[C@H](NC(=O)/C(=N\OC(C)(C)C(=O)O)c2csc(N)n2)C(=O)N1S(=O)(=O)O [AZTREONAM] | – | – | < 0.125 | 0.5 (≈ 1.15 µM) | 0.5 (≈ 1.15 µM) | 0.5 (≈ 1.15 µM) | 64 (≈ 147 µM) | 8 (≈ 18.4 µM) | – |

— ChEMBL document CHEMBL1275467, “Spread of OXA-48-positive carbapenem-resistant Klebsiella pneumoniae isolates in Istanbul, Turkey” (2008)
